Data on twelve compounds can be found in PubChem BioAssay (NCI).

Values joined by “and” are separate entries in the source; they are usually repeats but may differ in a detail not shown here. Equal values may be shown once.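 Cells were grown in 96-well plates and exposed to each compound for 48 hours at five concentrations; endpoints were interpolated linearly between bracketing concentrations, or set to the highest concentration if not reached. GI50 = concentration required for 50% inhibition of growth. TGI denotes the concentration required for complete inhibition of growth.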

Among the test systems are A549 NSCLC; EKVX NSCLC; HL-60(TB) leukemia; IGROV1 ovarian; MDA-MB-231 breast; SF-539 CNS; SK-MEL-2 melanoma; SK-OV-3 ovarian; TK-10 renal; MDA-MB-435.
Experiment in all cases: inhibition of tumour cell growth, NCI panel, 48 h

Regarding `COc1ccc(/C(=C/c2ccc3ccccc3c2)c2nn[nH]n2)cc1OC`, the GI50 with A549 NSCLC was 3.8 µM; in the assay with EKVX NSCLC, 18.2 µM; in the assay with HL-60(TB) leukemia, 2.56 µM; in the assay on IGROV1 ovarian, 4.23 µM; in the assay on MDA-MB-231 breast it was 12.5 µM; with SF-539 CNS, 2.38 µM. Besides, the GI50 was 4.36 µM in the assay on SK-MEL-2 melanoma, 3.63 µM in the assay on SK-OV-3 ovarian and 18.5 µM in the assay on TK-10 renal. In addition, the TGI with A549 NSCLC was greater than 100 µM; with EKVX NSCLC, greater than 100 µM; with HL-60(TB) leukemia, 6.94 µM; in the assay on IGROV1 ovarian it was greater than 100 µM; with MDA-MB-231 breast, greater than 100 µM; in the assay with SF-539 CNS, 7.94 µM. Besides, the TGI in the assay with SK-MEL-2 melanoma, in the assay on SK-OV-3 ovarian and in the assay on TK-10 renal was greater than 100 µM throughout.

As to `CC(=O)NC(CS)C(=O)O` (configuration not stated), the GI50 with A549 NSCLC, in the assay with EKVX NSCLC, in the assay on HL-60(TB) leukemia, with MDA-MB-435, with SF-539 CNS and in the assay on SK-MEL-2 melanoma was greater than 100 µM in each case. Besides, the GI50 in the assay with SK-OV-3 ovarian and in the assay with TK-10 renal was greater than 100 µM each time. Also, the TGI was > 100 µM and 69600 µM with A549 NSCLC; > 100 µM and 87600 µM in the assay on EKVX NSCLC; greater than 100 µM with HL-60(TB) leukemia; 16600 µM in the assay on IGROV1 ovarian; > 100 µM and 61900 µM with MDA-MB-435; greater than 100 µM with SF-539 CNS. Moreover, the TGI was > 100 µM and 66300 µM in the assay on SK-MEL-2 melanoma; greater than 100 µM in the assay with SK-OV-3 ovarian; > 100 µM and 76500 µM with TK-10 renal.

`N.N.N.N.N.N#Cc1nn[n-]n1.[Cl-].[Co+3]`: the GI50 in the assay on A549 NSCLC, in the assay with EKVX NSCLC, in the assay with HL-60(TB) leukemia, in the assay with IGROV1 ovarian, in the assay with SF-539 CNS and in the assay on SK-MEL-2 melanoma was greater than 100 µM in each case. Also, the GI50 in the assay with SK-OV-3 ovarian and in the assay on TK-10 renal was greater than 100 µM in each case. Further, the TGI in the assay with A549 NSCLC, in the assay with EKVX NSCLC, in the assay on HL-60(TB) leukemia, in the assay on IGROV1 ovarian, in the assay with SF-539 CNS and in the assay on SK-MEL-2 melanoma was greater than 100 µM in each case. The TGI with SK-OV-3 ovarian and in the assay on TK-10 renal was greater than 100 µM throughout.

Take `Cn1cnc([N+](=O)[O-])c1Sc1nc2ccccc2o1`: the TGI in the assay on A549 NSCLC came to 75.4 µM; in the assay on EKVX NSCLC, 15.3 µM; in the assay on HL-60(TB) leukemia, 3.79 µM; in the assay on IGROV1 ovarian it was 27.7 µM; in the assay with SF-539 CNS it was 24.1 µM; in the assay on SK-MEL-2 melanoma it was 52.9 µM. Also, the results for the TGI in the assay with SK-OV-3 ovarian and with TK-10 renal were greater than 81.2 µM and 22.9 µM, respectively.

Regarding `O=C(Nc1ccccc1)n1cc(-c2ccccn2)c(N2CCOCC2)n1`, the TGI in the assay with A549 NSCLC is greater than 100 µM; in the assay with EKVX NSCLC it was greater than 100 µM; in the assay on HL-60(TB) leukemia it was 6.93 µM; with IGROV1 ovarian, greater than 100 µM; in the assay with SF-539 CNS, 57.6 µM; in the assay on SK-OV-3 ovarian, greater than 100 µM. In the assay with TK-10 renal, the TGI was greater than 100 µM.

In the case of `C/C=C(\C)c1cc(=O)c2c(C)cc3c(c2o1)C(OC)(OC(C)=O)c1c(O)c(C2CC(C)(N(C)C)C(OC(C)=O)C(C)O2)cc(C2CC(N(C)C)C(OC(C)=O)C(C)O2)c1C3=O` (configuration not stated), the TGI is greater than 100 µM in the assay on A549 NSCLC; 11.6 µM with EKVX NSCLC; 57.1 µM with IGROV1 ovarian; 1.49 µM in the assay with MDA-MB-231 breast; 8.59 µM with SK-OV-3 ovarian; greater than 100 µM with TK-10 renal.

As for `C=C1C(=O)O[C@@H]2C[C@@H]1CC[C@]1(C)O[C@H]1CC/C(C)=C/CC[C@@]2(C)O`, the GI50 is 25.3 µM in the assay with A549 NSCLC; 23.4 µM in the assay on EKVX NSCLC; 31.7 µM in the assay with IGROV1 ovarian; 21.4 µM in the assay on MDA-MB-231 breast; 18.3 µM with MDA-MB-435; 16.5 µM in the assay with SF-539 CNS. In addition, the GI50 is 64.4 µM with SK-MEL-2 melanoma, 25.5 µM with SK-OV-3 ovarian and 15.4 µM in the assay with TK-10 renal. Also, the TGI in the assay with A549 NSCLC was 83.7 µM; in the assay on EKVX NSCLC it was 80.2 µM; with IGROV1 ovarian, greater than 100 µM; with MDA-MB-231 breast, 48.8 µM; in the assay on MDA-MB-435 it was 41.1 µM; in the assay on SF-539 CNS, 34.5 µM. Besides, the TGI was greater than 100 µM in the assay with SK-MEL-2 melanoma, 64 µM in the assay with SK-OV-3 ovarian and 37.8 µM with TK-10 renal.

With `Cc1ccccc1C=NC12CC3CC(CC(C3)C1)C2`, the TGI in the assay on A549 NSCLC, in the assay on EKVX NSCLC, in the assay on HL-60(TB) leukemia, in the assay on IGROV1 ovarian, with SF-539 CNS and with SK-MEL-2 melanoma was greater than 100 µM each time. Also, the TGI in the assay on SK-OV-3 ovarian and with TK-10 renal was greater than 100 µM in each case.

For the compound `N#CCCN(C1=NN(C(=O)CC(=O)Nc2ccc(Cl)cc2)C(c2ccccc2)C1)c1ccc(Cl)cc1` (configuration not stated), the TGI with A549 NSCLC, with EKVX NSCLC, in the assay on HL-60(TB) leukemia, in the assay on IGROV1 ovarian, in the assay on SF-539 CNS and in the assay on SK-MEL-2 melanoma was greater than 100 µM each time. Besides, the TGI with TK-10 renal is greater than 100 µM.

As to `O=C(CCC(=O)Nc1ccc(Cl)cc1)CC(=O)c1ccc2ccccc2c1`, the TGI in the assay with A549 NSCLC, with EKVX NSCLC, in the assay on HL-60(TB) leukemia, in the assay on IGROV1 ovarian, in the assay with SF-539 CNS and in the assay with SK-MEL-2 melanoma was greater than 100 µM throughout. Further, the TGI in the assay with SK-OV-3 ovarian and with TK-10 renal was greater than 100 µM in each case.

Take `Cc1cc2nc3c(=O)[nH]c(=O)nc-3n(CC(O)C(O)C(O)CO)c2cc1N` (configuration not stated): the TGI in the assay on A549 NSCLC, in the assay on EKVX NSCLC, in the assay with HL-60(TB) leukemia, with IGROV1 ovarian, in the assay on SF-539 CNS and in the assay on SK-MEL-2 melanoma was greater than 100 µM in each case. For the same compound, the TGI in the assay on SK-OV-3 ovarian and in the assay with TK-10 renal was greater than 100 µM in each case.

With `Cc1ccc2nc(Sc3c([N+](=O)[O-])ncn3C)[nH]c2c1`, the TGI in the assay with A549 NSCLC is greater than 100 µM; with EKVX NSCLC it was 63.9 µM; with IGROV1 ovarian it was 65.6 µM; in the assay with SF-539 CNS, 36.4 µM; in the assay with SK-OV-3 ovarian, greater than 100 µM; in the assay on TK-10 renal, greater than 100 µM.
